From patent publication US6022880A, “Substituted pyridylamino indoles” (Hoechst Marion Roussel, Inc., priority 1997, dated 2000) come the findings set out here.

Structures are written as SMILES. Structures can show the parent of a compound that is named as a salt. Where only a bound is given, the exact number is not on record here.

For test [1], the system named is mice (scopolamine induced memory deficit). Put plainly: Dark Avoidance Assay (reversal of scopolamine induced memory deficit). The note with it: s.c. Type of test: in vivo, mouse. The protocol:
Dark Avoidance Assay In this assay mice are tested for their ability to remember an unpleasant stimulus for a period of 24 hours. A mouse is placed in a chamber that contains a dark compartment; a strong incandescent light drives it to the dark compartment, where an electric shock is administered through metal plates on the floor. The animal is removed from the testing apparatus and tested again, 24 hours later, for the ability to remember the electric shock. If scopolamine, an anticholinergic agent that is known to cause memory impairment, is administered before an animal's initial exposure to the test chamber, the animal re-enters the dark compartment shortly after being placed in the test chamber 24 hours later. This effect of scopolamine is blocked by an active test compound, resulting in a greater interval before re-entry into the dark compartment. The results for an active compound are expressed as the percent of a group of animals in which the effect of scopolamine is blocked, as manifested by an increased interval between being placed in the test chamber and re-entering the dark compartment.

For test [2], the system named is serotonin uptake, rat whole brain synaptosomes. Put plainly: Inhibition of [3H]-Serotonin Uptake in Rat Whole Brain Synaptosomes. It is filed as biochemical, rat (male Wistar). The note with it: [3H]-5HT 50 nM, read-out: C: Inhibition of serotonin uptake, IC50. On the procedure: (C) Inhibition of [^3 H]-Serotonin Uptake in Rat Whole Brain Synaptosomes
(§1) A. Animals: Male CR Wistar Rats (100-125 g).
The final desired concentration of ^3 H-5HT in the assay is 50 nM. The dilution factor is 0.8.
5. For most assays, a 1 mM solution of the test compound is made up in suitable solvent and serially diluted such that the final concentration in the assay ranges from 2×10^-8 to 2×10^-5 M. Seven concentrations are used for each assay.
Male Wistar rats are decapitated and the brain rapidly removed. Whole brain minus cerebella is weighed and homogenized in 9 volumes of ice-cold 0.32 M sucrose using a Potter-Elvejhem homogenizer. Homogenization should be done with 4-5 up and down strokes at medium speeds to minimize synaptosome lysis. The homogenate is centrifuged at 1000 g for 10 min. at 0-4° C. The supernatant (S1) is decanted and is used for uptake experiments.
(§2) Tubes are incubated at 37° C. under a 95% O2 /5% CO2 atmosphere for 5 minutes. For each assay, 3 tubes are incubated with 20 μl of vehicle at 0° C. in an ice bath. After incubation all tubes are immediately centrifuged at 4000 g for 10 minutes. The supernatant fluid is aspirated and the pellets dissolved by adding 1 ml of solubilizer (Tritor. X-100+50% EtOH, 1:4 v/v). The tubes are vigorously vortexed, decanted into scintillation vials, and counted in 10 ml of Liquiscint scintillation counting cocktail. Active uptake is the difference between cpm at 37° C. and 0° C. The percent inhibition at each drug concentration is the mean of three determinations. IC50 values are derived from log-probit analysis.

Test [3] deals with dopamine uptake, rat striatal synaptosomes. Put plainly: Inhibition of 3H-Dopamine Uptake in Rat Striatal Synaptosomes. Conditions: 3H-DA 50 nM, read-out: D: Inhibition of dopamine uptake, IC50. Type of test: biochemical, rat (male Wistar). The protocol: (D) Inhibition of ^3 H-Dopamine Uptake in Rat Striatal Synaptosomes
This assay is used to show differential drug effects on dopamine uptake versus norepinephrine uptake and to identify therapeutic agents for diseases where the potentiation of dopaminergic activity may be helpful (e.g. Parkinson's Disease).
as §1
The final desired concentration of ^3 H-DA in the assay is 50 nM. The dilution factor is 0.9. Therefore, the KHBB is made up to contain 55.5 nM [^3 H]-5DA.
5. For most assays, a 1 mM stock solution of the test compound is made up in a suitable solvent and serially diluted such that the final concentration in the assay ranges from 2×10^-8 to 2×10^-5 M. Seven concentrations are used for each assay. Higher or lower concentrations may be used depending on the potency of the compound.
Male Wistar rats are decapitated and the brain rapidly removed. Corpora striata are rapidly removed, weighed and homogenized in 9 volumes of ice-cold 0.32 M sucrose using a Potter-Elvejhem homogenizer. Homogenization should be done with 4-5 up and down strokes at medium speeds to minimize synaptosome lysis. The homogenate is centrifuged at 1000 g for 10 min. at 0-4° C. The supernatant (S1) is decanted and is used for uptake experiments.
as §2, with “(Triton” for “(Tritor.”

The subject of test [4] is norepinephrine uptake, rat whole brain or hypothalamic synaptosomes. Put plainly: Inhibition of [3H]-Norepinephrine Uptake in Rat Whole Brain or Hypothalamic Synaptosomes. It is filed as biochemical, rat (male Wistar). Conditions: [3H]-NE 50 nM, read-out: E: Inhibition of norepinephrine uptake, IC50. On the procedure: (E) Inhibition of [^3 H]-Norepinephrine Uptake in Rat Whole Brain or Hypothalamic Synaptosomes
This assay is used as a biochemical screen for potential antidepressants which block norepinephrine uptake.
A. Animals: Male CR Wistar rats (100-125 g).
The final desired concentration of [^3 H]-NE in the assay is 50 nM. The dilution factor is 0.8.
5. For most assays, a 1 mM stock solution of the test compound is made up in a suitable solvent and serially diluted such that the final concentration in the assay ranges from 2×10^-8 to 2×10^-5 M. Seven concentrations are used for each assay.
Male Wistar rats are decapitated and the brain rapidly removed. Either whole brain minus cerebella or hypothalamus is weighed and homogenized in 9 volumes of ice-cold 0.32 M sucrose using a Potter-Elvejhem homogenizer. Homogenization should be done with 4-5 up and down strokes at medium speeds to minimize synaptosome lysis. The homogenate is centrifuged at 1000 g for 10 min. at 0-4° C. The supernatant (S1) is decanted and is used for uptake experiments.
as §2, with “(Triton” for “(Tritor.”

A further test addresses T1, MAO-A (Rattus norvegicus, UniProt P21396).
T1 sequence (P21396 1-526): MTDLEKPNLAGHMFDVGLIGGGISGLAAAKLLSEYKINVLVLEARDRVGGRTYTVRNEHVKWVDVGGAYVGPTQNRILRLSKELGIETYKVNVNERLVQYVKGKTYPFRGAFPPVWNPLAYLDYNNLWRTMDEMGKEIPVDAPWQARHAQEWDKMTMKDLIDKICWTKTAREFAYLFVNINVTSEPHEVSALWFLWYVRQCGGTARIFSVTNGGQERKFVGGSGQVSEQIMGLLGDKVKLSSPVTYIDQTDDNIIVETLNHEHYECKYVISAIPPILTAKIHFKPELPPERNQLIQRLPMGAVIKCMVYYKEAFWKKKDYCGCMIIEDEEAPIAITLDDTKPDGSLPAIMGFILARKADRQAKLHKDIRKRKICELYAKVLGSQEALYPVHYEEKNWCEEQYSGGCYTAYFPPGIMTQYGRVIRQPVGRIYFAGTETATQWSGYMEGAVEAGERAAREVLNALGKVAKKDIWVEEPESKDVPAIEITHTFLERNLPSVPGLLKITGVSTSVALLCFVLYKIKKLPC
Put plainly: biochemical. The arrangement: species or system rat (male Wistar, whole brain minus cerebellum). Conditions: substrate [3H]-5HT 200 μM; read-out: Inhibitory Concentration - IC50 MAO-A.

In the next test the target is T2, MAO-B (Rattus norvegicus, UniProt P19643).
T2 sequence (P19643 1-520): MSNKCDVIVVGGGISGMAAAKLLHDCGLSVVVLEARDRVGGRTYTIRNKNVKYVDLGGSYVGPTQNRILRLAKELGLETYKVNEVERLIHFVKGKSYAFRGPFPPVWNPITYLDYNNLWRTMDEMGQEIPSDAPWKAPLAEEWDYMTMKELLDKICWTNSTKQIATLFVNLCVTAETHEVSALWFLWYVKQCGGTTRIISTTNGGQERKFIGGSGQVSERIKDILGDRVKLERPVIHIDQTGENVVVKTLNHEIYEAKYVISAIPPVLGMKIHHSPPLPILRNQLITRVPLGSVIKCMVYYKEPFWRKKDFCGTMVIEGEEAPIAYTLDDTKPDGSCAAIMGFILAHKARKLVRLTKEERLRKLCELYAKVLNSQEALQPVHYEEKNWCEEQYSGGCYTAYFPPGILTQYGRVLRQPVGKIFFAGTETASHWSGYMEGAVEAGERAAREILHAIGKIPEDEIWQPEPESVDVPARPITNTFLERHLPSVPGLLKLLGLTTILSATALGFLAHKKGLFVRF
Put plainly: biochemical. Conditions: substrate [14C]-PEA 200 μM; read-out: Inhibitory Concentration - IC50 MAO-B. The arrangement: species or system rat (male Wistar, whole brain minus cerebellum).

Source text for MAO-A: (§3) Inhibition of Type A and Type B Monoamine Oxidase Activity in Rat Brain Synaptosomes
To determine the selective inhibition of the two forms of monoamine oxidase (MAO).
Although various methods for measuring MAO activity are available, the described method involves the extraction of the radiolabeled deaminated metabolites of [^3 H]-5HT or [^14 C]-β-phenethylamine. This procedure allows MAO-A and MAO-B activities to be measured either simultaneously or individually (3).
Serotonin creatinine SO4 (5HT) is obtained from Sigma Chemical Company. A 5 mM stock solution is made up in 0.01 N HCl. This is used to dilute the specific activity of the [^3 H]-5HT.
[^3 H]-5-Hydroxytryptamine creatinine SO4 (20-30 Ci/mmol) is obtained from New England Nuclear.
Add 12 μl of [^3 H]-5HT to 2 ml of the 5 mM 5HT solution. (Final amine concentration in the assay is 200 μM: see below.)
(§4) Equal amounts of MAO-A (5HT) and MAO-B (PEA) substrates are combined for simultaneously testing both MAO types, i.e. mixed stock solution of 2.5 mM 5HT and 2.5 mM PEA, 40 μl of this mixed solution gives a 200 μM final concentration of each amine in the assay. When testing only one MAO type, the individual 5 mM stock solutions must be diluted 1:1 with distilled water prior to adding 40 μl to the incubation mixture; i.e., same 200 μM final amine concentration.
(§5) Male Wistar rats weighing 150-250 grams were sacrificed and the brains rapidly removed. Whole brain minus cerebellum was homogenized in 30 volumes of ice-cold, phosphate-buffered 0.25 M sucrose, using a Potter-Elvejhem homogenizer. The homogenate was centrifuged at 1000 g for 10 minutes and the supernatant (S1) decanted and recentrifuged at 18,000 g for 20 minutes. The resulting pellet (p2) was resuspended in fresh 0.25 M sucrose and served as the tissue source for mitochondrial MAO.
(§6) Tubes are preincubated for 15 minutes at 37° C. and the assay is started by adding 40 μl of combined substrate ([^3 H]-5HT and [^14 C]-PEA) at 15 second intervals. The tubes are incubated for 30 minutes at 37° C. and the reaction stopped by the addition of 0.3 ml 2N HCl. Tissue blank values are determined by adding the acid before the radioactive substrate. The oxidative products of the reaction are extracted with ethyl acetate/toluene (1:1). 5 ml of this mixture is added to the tubes. The resultant mixture is vortexed for 15 seconds to extract the deaminated metabolites into the organic phase and the latter is allowed to separate from the aqueous phase. The tubes are placed in acetone/dry ice bath to freeze the aqueous layer. When this layer is frozen, the top organic layer is poured into a scintillation vial. 10 ml of Liquiscint is added and the samples are counted using window settings for ^14 C in one channel and ^3 H in the second channel. IC50 values are determined by log-probit analysis.
Procedure for MAO-B: as §3
a. β-phenethylamine (PEA) is obtained from Sigma Chemical Company. A 5 mM stock solution is made up in 0.01 N HCl. This is used to dilute the specific activity of the [^14 C]-PEA.
b. β-[ethyl-1-^14 C]-phenethylamine hydrochloride (40-50 mCi/mmol) is obtained from New England Nuclear.
Add 12 μl of [^14 C]-PEA to 2 ml of the 5 mM PEA solution. (Final amine concentration in the assay is 200 μM: see below.)
as §4, §5, §6

In the case of `Cn1cc(Nc2ccncc2)c2ccccc21.O=C(O)/C=C/C(=O)O` [1-Methyl-3-(4-pyridinylamino)indole fumarate], the “% of Animals with Scopolamine Induced Memory Deficit Reversal” value (“% of Animals” for short) is given as 33% in test [1] (1 mg/kg of body weight), 29% in test [1] (3 mg/kg of body weight) and 27% in test [1] (10 mg/kg of body weight).
Regarding `CN(c1ccncc1)c1cc2ccccc2s1` [2-(Methyl-4-pyridinylamino)benzo[b]thiophene hydrochloride], the IC50 turned out to be 1.15 µM in test [2], 510 nM in test [3] and 78 nM in test [4].
As for `FC(F)(F)c1ccc2c(Nc3ccncc3)csc2c1` [3-(4-Pyridinylamino)-6-trifluoromethylbenzo[b]thiophene hydrochloride], the IC50 turned out to be 60 µM at MAO-A and 165 µM at MAO-B.
For `c1ccc2c(Nc3ccncc3)csc2c1` [3-(4-Pyridinylamino)benzo[b]thiophene hydrochloride], the IC50 amounted to 5.3 µM at MAO-A and 18 µM on MAO-B.
As for `O=C(O)/C=C\C(=O)O.c1ccc2c(Nc3ccncc3)c[nH]c2c1` [3-(4-pyridinylamino)-1H-indole maleate, 3-(4-Pyridinylamino)-1H-indole maleate], the “% of Animals” value in test [1] (10 mg/kg of body weight) was 70%.
With `c1ccc2c(Nc3ccncc3)noc2c1` [3-[(4-pyridinyl)amino]-1,2-benzisoxazole], the IC50 came to 0.64 µM at MAO-A and 3.9 µM on MAO-B.
For `Clc1ccc2c(Nc3ccncc3)c[nH]c2c1` [6-Chloro-3-(4-pyridinylamino)-1H-indole, 6-Chloro-3(4-pyridinylamino)indole], the “% of Animals” value in test [1] (1 mg/kg of body weight) is given as 27%; in test [1] (3 mg/kg of body weight), 20%; in test [1] (10 mg/kg of body weight), 27%.
Turning to `Clc1ccc2c(Nc3ccncc3)csc2c1` [6-Chloro-3-(4-pyridinylamino)benzo[b]thiophene hydrochloride], the figures for the IC50 at MAO-A and on MAO-B were 10.5 µM and 51 µM, respectively.
Turning to `C=CCN(c1ccncc1)c1csc2cc(Cl)ccc12` [6-Chloro-3-[(2-propenyl)(4-pyridinyl)amino]benzo[b]thiophen hydrochloride], the IC50 is 0.12 µM in test [2] and 7 nM in test [4].
For `Clc1ccc2c(Nc3ccncc3)noc2c1` [6-Chloro-3-[(4-pyridinyl)amino]-1,2-benzisoxazole maleate], the figures for the IC50 on MAO-A and at MAO-B were 2.8 µM and 51 µM, respectively.
On to `Clc1ccc2c(N(CC3CC3)c3ccncc3)csc2c1` [6-Chloro-3-[(cyclopropylmethyl)(4-pyridyl)amino]benzo[b]thiophen hydrochloride], for which the figures for the IC50 in test [2] and in test [4] were 0.12 µM and 12 nM, respectively.
Take `COc1ccc2c(Nc3ccncc3)csc2c1` [6-Methoxy-3(4-pyridinylamino)benzo[b]thiophene hydrochloride]: the results for the IC50 at MAO-A and at MAO-B were 3.2 µM and 17 µM, respectively.
Turning to `CCCN(c1ccncc1)c1csc2cc(OC)ccc12` [6-Methoxy-3-(propyl-4-pyridinylamino)benzo[b]thiophene hydrochloride], the IC50 at MAO-A amounted to 182 µM; at MAO-B it was 205 µM.
Take `CN(C)CCC=C1c2ccccc2CCc2ccccc21` [Amitriptyline, reference compound]: the results for the IC50 in test [3] and in test [4] were > 20000 nM and 7700 nM, respectively.
Regarding `O=C1CC2(CCCC2)CC(=O)N1CCCCN1CCN(c2ncccn2)CC1` [Buspirone], the IC50 in test [3] is > 20000 nM.
Turning to `CN(C)CCCN1c2ccccc2CCc2ccc(Cl)cc21` [Chloripramine, reference compound], the IC50 was > 20000 nM in test [3] and 18600 nM in test [4].
Turning to `CN1CCN(C2=Nc3cc(Cl)ccc3Nc3ccccc32)CC1` [Clozapine, reference compound], the IC50 in test [3] and in test [4] was > 20000 nM each time.
`CC[C@@H]1C(=O)OC[C@@H]1Cc1cncn1C` [Pilocarpine, reference compound]: in test [1] (5.0 mg/kg of body weight), the “% of Animals” value is 13%.
Take `Nc1c2c(nc3ccccc13)CCCC2` [Tacrine, reference compound]: in test [1] (0.63 mg/kg of body weight), the “% of Animals” value was found to be 13%.
